Assay results as given in patent publication US10517877B2, “Compounds and methods for modulating frataxin expression” (Wisconsin Alumni Research Foundation, priority 2016, dated 2019).

Assays:
[1] = system: frataxin (FXN) mRNA in GM15850 cells; experiment: FXN mRNA by RT-PCR in GM15850 FRDA patient cell line; type: cell-based, human; conditions: 1 μM, 24 hours, normalized to TBP, relative to 0.1% DMSO
Excerpt: GM15850 and GM15851 cell lines (Epstein Barr virus transformed human B-lymphocytes) were obtained from the National Institute of General Medical Sciences (NIGMS) Human Genetic Cell Repository at the Coriell Institute for Medical Research, Camden, N.J. The GM15850 cell line was derived from a clinically affected Friedreich's ataxia patient ataxia displaying scoliosis, hypertrophic cardiomyopathy, and slurred speech, and characterized as homozygous for the GAA expansion in the frataxin gene with alleles of approximately 650 and 1030 repeats. The GM15851 cell line was derived from a clinically unaffected individual having two FRDA alleles in the normal range of GAA trinucleotide repeats (from about 6 to about 34 repeats). This clinically unaffected individual is a sibling of the clinically affected patient from which the GM15850 cell line was derived.
Cells were maintained in RPMI 1640 supplemented with 2 mM L-glutamine and 15% fetal bovine serum (FBS) at 37° C. in a humidified atmosphere of 5% CO2. Cell density was maintained between 200,000 cells/mL and 1,000,000 cells/mL. Cell growth and morphology were monitored by phase contrast microscopy and cell viability by trypan blue exclusion. To maintain cell density, cells were passaged by centrifuging at 500g for 3 minutes and resuspending the cells in fresh media. […]

[2] = system: FXN protein in GM15851 cells; experiment: Immunoblot for FXN protein in GM15851 cells; type: cell-based, human; conditions: 24 hours, 1 μM, Agent 4 0.1, 0.5 or 1 μM
Procedure: (§1) In FIG. 3A, “50” refers to GM15850 cells and in FIG. 3B, “51” refers to GM15851 cells. Cells were treated as in Example 4.
(§2) Total cell extracts from cell lines were used for immunoblot analysis. Antibodies to frataxin (abcam ab110328, 1:250 dilution) or alpha-Tubulin (Cell Signaling Technologies 2144, 1:1000 dilution) were used. Signal was detected by chemiluminescence with HRP-conjugated secondary antibodies (Bio-Rad 172-1011, 1:2000 for anti-mouse frataxin and GE NA934V, 1:2000 for anti-rabbit alpha-Tubulin).

[3] = system: FXN-GAA-Luc reporter cell line; experiment: Luciferase reporter assay, FXN-GAA-Luc line (~310 GAA repeats); type: cell-based; conditions: 24 hours, Agent 4 at 1 or 2 μM, other treatments 2 μM
Procedure: Treatments are 2 μM unless otherwise indicated. Results are mean±SEM (n=4).

[4] = system: FXN protein in GM15850 cells; experiment: Immunoblot for FXN protein in GM15850 cells; type: cell-based, human; conditions: 24 hours, 1 μM, Agent 4 0.1, 0.5 or 1 μM
Procedure: as §1, §2

[5] = system: MYC transcription in MM cells; conditions: MM cells bearing IgH rearrangement at the MYC locus; cited from earlier work
cell cycle = conditions: cited from earlier work

Row | SMILES | increase in FXN mRNA levels [1] | FXN protein (immunoblot) [2] | luciferase activity [3] | FXN protein (immunoblot) [4] | MYC transcription [5] | cell cycle effect (cell cycle)
1 | Cc1sc2c(c1C)C(c1ccc(Cl)cc1)=N[C@@H](CC(=O)NCCOCCOCCOCCOCCOCCOCCC(=O)NCCCN(C)CCCNC(=O)CCNC(=O)c1cc(NC(=O)c3cc(NC(=O)c4nc(NC(=O)c5cc(NC(=O)CCCNC(=O)c6nc(NC(=O)c7cc(NC(=O)c8cc(NC(=O)c9sccc9Cl)cn8C)cn7C)cn6C)cn5C)cn4C)cn3C)cn1C)c1nnc(C)n1-2 [Control Conjugate 2] | no increase | increase in FXN protein |  |  |  | 
2 | Cc1sc2c(c1C)C(c1ccc(Cl)cc1)=N[C@@H](CC(=O)OC(C)(C)C)c1nnc(C)n1-2 [JQ1] | no increase |  | Significant activation was not observed | Neither polyamide alone (3), nor JQ1, nor the unconjugated treatment induced increased production of FXN protein | inhibits MYC transcription in a dose- and time-dependent manner | known to cause cell cycle arrest
